We go through 3 compounds from EP2349249B1, “SYNERGISTIC COMPOSITION FOR RECOVERY AND REDUCTION OF MILD ISCHEMIC DAMAGE” (Giellepi S.p.A., priority 2008, dated 2010).

Experiment [1] has as its system H9c2 cells. The experiment in a line: Cell cycle profile by flow cytometry (propidium iodide) in simulated ischemia. It is filed as cell-based. The note with it: ischemic H9c2 cells; 2.5 mM Creatine and/or 5 mM Ribose. The procedure: The cell cycle profile was analyzed by flow cytometry after DNA staining with propidium iodide (PI, Sigma, St. Louis, Mo.). Cells were washed with PBS and fixed with 70% ethanol at -20°C, centrifuged (15 min at 1800 rpm), resuspended in 1 ml PBS containing 50 µg/ml PI and incubated for 1 hour at room temperature Cells were then analyzed by flow cytometry in a FACSorter (Becton Dickinson). The percentage of cells in different phases of the cell cycle was calculated using the CellQuest software program (Becton Dickinson).

Experiment [2] relates to H9c2 cells. Nature of the experiment: MTT cell viability assay in doxorubicin-treated cells. The format is cell-based. The note with it: H9c2 cells treated for 24 hours with 0.5 µM doxorubicin; for minimal effective concentration: Rattus norvegicus, MTT dose-response curve, read-out: minimum effective concentration required to improve viability (sufficient to induce protection). The procedure:
Cells were seeded at a concentration of 1.8x10^3/well in 96-well plates and incubated at 37°C for 24 hours. Cells were then incubated for additional 24 hours after addition of water or doxorubicin (0.5 µM final concentration) in presence of different concentrations of Cr and/or Rib, as indicated in the figures. Cell viability was determined by the 2-(4,5-dimethyltriazol-2-yl)-2,5-diphenyl tetrazolium bromide assay (MTT, Sigma, St Louis, Mo). Briefly, after addition to each well of 20µl of the MTT solution in PBS at a concentration of 5 mg/ml, cells were incubated at 37°C for 4 hours. After removal of the supernatant, 100 µl of DMSO were added to dissolve the formazan salts produced and optical density (OD) was read at λ=540 nm. For each treatment, five replicates were performed. The viability index was calculated, for each treatment, as ODx/OD0, where ODx and OD0 are the average ODs at time x and at time zero.
The optimal working concentration was determined by a dose-response curve using the MTT assay (vital dye staining) in presence of Creatine and Ribose. To test the efficacy of creatine and ribose in maintaining cellular energy homeostasis, H9c2 cells were treated with doxorubicin, a well-known cardiotoxic agent that causes mitochondrial damage resulting in production of reactive oxygen species.
For orientation: Tetrazolium assays rely on reduction of a dye to a coloured formazan, in cell work by metabolically active cells.

Regarding `CN(CC(=O)O)C(=N)N.O` [Creatine, Creatine monohydrate], in the experiment with H9c2 cells [1], the “change of the percentage of cells progressing from G1 to S phase” value is “did not change”. Also, in the experiment with H9c2 cells [2], the minimal effective concentration was 2500 µM.

As for `COc1cccc2c1C(=O)c1c(O)c3c(c(O)c1C2=O)C[C@@](O)(C(=O)CO)C[C@@H]3O[C@H]1C[C@H](N)[C@H](O)[C@H](C)O1` [Doxo, doxorubicin, reference compound], the “decrease of viability compared to untreated cells” value in the experiment with H9c2 cells [2] (MTT) is reported as 35%.

As to `O=C[C@H](O)[C@H](O)[C@H](O)CO` [Ribose, D-ribose], the “change of the percentage of cells progressing from G1 to S phase” value with H9c2 cells [1] was “did not change”. In addition, in the experiment with H9c2 cells [2], the minimal effective concentration came out at 5000 µM.
